Usually IC50 stands for the point on the concentration scale where inhibition reaches its midpoint.

Data on 11 molecules can be found in patent US11780830B2, “Triazolone derivatives or salts thereof and pharmaceutical compositions comprising the same” (YUHAN CORPORATION, priority 2018, dated 2023).

Holding throughout (format): biochemical
The target of one experiment is T1, recombinant human VAP-1 (Homo sapiens, UniProt Q16853).
T1 construct: purchased R&D systems
T1 sequence (Q16853 1-763): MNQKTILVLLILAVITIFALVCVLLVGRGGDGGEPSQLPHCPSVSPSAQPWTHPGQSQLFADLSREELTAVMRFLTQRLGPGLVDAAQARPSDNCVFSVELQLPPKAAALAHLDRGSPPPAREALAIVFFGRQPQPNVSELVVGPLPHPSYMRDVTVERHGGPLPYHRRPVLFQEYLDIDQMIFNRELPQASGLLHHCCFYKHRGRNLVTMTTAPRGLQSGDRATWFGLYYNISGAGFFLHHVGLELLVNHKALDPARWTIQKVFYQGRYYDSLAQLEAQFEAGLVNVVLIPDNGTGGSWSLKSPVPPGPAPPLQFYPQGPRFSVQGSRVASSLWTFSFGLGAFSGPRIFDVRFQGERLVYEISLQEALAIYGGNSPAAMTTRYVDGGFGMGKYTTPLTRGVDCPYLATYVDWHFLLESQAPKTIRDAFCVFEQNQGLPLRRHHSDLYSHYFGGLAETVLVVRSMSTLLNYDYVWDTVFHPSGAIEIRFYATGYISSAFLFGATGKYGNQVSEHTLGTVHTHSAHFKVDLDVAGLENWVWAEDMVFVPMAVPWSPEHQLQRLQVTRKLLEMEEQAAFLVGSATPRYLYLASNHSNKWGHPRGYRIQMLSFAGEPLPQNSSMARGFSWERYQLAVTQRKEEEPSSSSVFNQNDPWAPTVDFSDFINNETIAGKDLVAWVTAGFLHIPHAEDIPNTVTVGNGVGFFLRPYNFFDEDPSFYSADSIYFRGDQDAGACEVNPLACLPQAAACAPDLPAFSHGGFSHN
Put plainly: Activity on recombinant human VAP-1, HRP-coupled Amplex Red hydrogen peroxide assay. The following applies: substrate 1 mM benzylamine; compound incubated with enzyme at 37° C. for 30 minutes; pH 7.4; read-out: Inhibitory Activity (IC50, nM) human VAP-1. The essentials: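 Fluorescence of resorufin formed from H2O2 (ex 544 nm, em 590 nm) was tracked for 1-2 h after adding 1 mM benzylamine, 200 uM Amplex Red and 1 U/mL HRP to enzyme pretreated with compound for 30 min at 37 °C. IC50 values derive from four-variable logistic fits.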

In experiment [1] the target is T2, recombinant human MAO-B (monoamine oxidase-B) (Homo sapiens, UniProt P27338).
T2 construct: purchased Sigma-Aldrich
T2 sequence (P27338 1-520): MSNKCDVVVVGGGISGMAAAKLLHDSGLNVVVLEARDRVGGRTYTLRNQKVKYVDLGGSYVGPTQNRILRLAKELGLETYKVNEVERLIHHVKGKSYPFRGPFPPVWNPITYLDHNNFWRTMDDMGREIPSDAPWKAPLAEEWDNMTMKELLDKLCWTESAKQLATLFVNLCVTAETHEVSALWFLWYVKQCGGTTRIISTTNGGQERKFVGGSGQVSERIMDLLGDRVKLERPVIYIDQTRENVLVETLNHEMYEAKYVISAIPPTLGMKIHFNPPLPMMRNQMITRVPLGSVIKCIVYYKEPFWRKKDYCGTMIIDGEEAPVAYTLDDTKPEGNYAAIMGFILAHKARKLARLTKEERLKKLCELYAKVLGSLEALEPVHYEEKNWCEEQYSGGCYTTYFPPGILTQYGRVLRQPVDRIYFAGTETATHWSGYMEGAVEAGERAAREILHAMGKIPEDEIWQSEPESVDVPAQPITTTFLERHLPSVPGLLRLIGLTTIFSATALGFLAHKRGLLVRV
The experiment in a line: Activity on recombinant human MAO-B, method similar to the VAP-1 assay. The following applies: substrate 1 mM benzylamine; read-out: Inhibitory Activity (IC50, nM) MAO-B. The essentials: (§1)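 Fluorescence (544/590 nm) of resorufin formed from Amplex Red by HRP and enzyme-generated H2O2 was followed over 1-2 h. Substrates were 0.5 mM tyramine for MAO-A and 1 mM benzylamine for MAO-B; compounds were preincubated with enzyme for 30 min at 37° C. IC50 came from four-parameter logistic fitting of signal-rate inhibition.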

For experiment [2], the target named is T3, recombinant human MAO-A (monoamine oxidase-A) (Homo sapiens, UniProt P21397).
T3 construct: purchased Sigma-Aldrich
T3 sequence (P21397 1-527): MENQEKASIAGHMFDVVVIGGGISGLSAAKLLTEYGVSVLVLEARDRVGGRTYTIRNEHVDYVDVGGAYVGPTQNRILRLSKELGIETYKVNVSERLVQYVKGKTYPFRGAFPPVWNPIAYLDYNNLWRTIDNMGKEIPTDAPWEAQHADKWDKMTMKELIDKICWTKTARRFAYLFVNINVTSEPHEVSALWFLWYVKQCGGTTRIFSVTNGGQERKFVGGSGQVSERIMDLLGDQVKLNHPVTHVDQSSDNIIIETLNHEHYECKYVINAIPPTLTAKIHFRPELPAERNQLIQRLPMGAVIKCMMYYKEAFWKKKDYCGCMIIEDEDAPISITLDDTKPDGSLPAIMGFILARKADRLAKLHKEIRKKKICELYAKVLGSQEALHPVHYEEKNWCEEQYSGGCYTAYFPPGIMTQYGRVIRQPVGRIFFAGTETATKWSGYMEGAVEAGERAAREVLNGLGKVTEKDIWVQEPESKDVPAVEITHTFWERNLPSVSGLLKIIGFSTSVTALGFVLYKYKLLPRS
The experiment in a line: Activity on recombinant human MAO-A, method similar to the VAP-1 assay. The note with it: substrate 0.5 mM tyramine; read-out: Inhibitory Activity (IC50, nM) MAO-A. Summed up: as §1

Experiment [3] addresses T4, recombinant human DAO (diamine oxidase) (Homo sapiens, UniProt P19801).
T4 construct: purchased R&D systems
T4 sequence (P19801 20-751): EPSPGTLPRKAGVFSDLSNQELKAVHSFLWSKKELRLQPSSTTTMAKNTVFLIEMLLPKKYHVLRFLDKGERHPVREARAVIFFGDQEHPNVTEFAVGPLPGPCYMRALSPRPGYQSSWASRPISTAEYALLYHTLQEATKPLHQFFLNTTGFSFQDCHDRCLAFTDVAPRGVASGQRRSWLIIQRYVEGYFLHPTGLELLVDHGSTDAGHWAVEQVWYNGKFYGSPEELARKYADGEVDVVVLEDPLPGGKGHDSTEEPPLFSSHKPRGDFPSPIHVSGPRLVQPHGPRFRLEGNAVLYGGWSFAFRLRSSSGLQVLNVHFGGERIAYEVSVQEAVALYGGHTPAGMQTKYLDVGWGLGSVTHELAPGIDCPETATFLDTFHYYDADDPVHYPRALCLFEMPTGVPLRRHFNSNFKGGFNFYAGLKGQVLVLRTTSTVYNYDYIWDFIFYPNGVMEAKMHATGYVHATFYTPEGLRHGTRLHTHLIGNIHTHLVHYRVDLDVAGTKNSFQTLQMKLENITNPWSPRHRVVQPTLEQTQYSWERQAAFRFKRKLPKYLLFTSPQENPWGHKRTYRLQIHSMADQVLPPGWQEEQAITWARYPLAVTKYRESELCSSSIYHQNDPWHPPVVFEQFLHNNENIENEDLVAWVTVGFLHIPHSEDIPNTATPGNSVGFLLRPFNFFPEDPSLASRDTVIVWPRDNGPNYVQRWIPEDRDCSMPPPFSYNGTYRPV
The experiment in a line: Activity on recombinant human DAO, method similar to the VAP-1 assay. The following applies: substrate 1 mM putrescine; read-out: Inhibitory Activity (IC50, nM) DAO. The essentials: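 Inhibition of recombinant human diamine oxidase (DAO, R&D systems) was assessed by the same approach as the VAP-1 assay, using 1 mM putrescine as substrate. Hydrogen peroxide formed was detected through an HRP-coupled Amplex Red reaction yielding fluorescent resorufin, read at 544 nm excitation and 590 nm emission. IC50 values came from four-parameter logistic fitting in GraphPad Prism.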

Each structure is given as a SMILES string. Structures can show the parent of a compound that is named as a salt.

Turning to `CC(C)c1nc(-c2ccc(-c3ccc(Cn4cnn(C/C(=C/F)CN)c4=O)s3)cc2)no1` [Example 37, 2-[(2E)-2-(aminomethyl)-3-fluoroprop-2-en-1-yl]-4-[(5-4-[5-(propan-2-yl)-1,2,4-oxadiazol-3-yl]phenylthiophen-2-yl)methyl]-2,4-dihydro-3H-1,2,4-triazol-3-one hydrochloride], the IC50 at recombinant human VAP-1 is 0.76 nM; in experiment [1], 590 nM; in experiment [2] it was 5590 nM; in experiment [3] it was 120 nM.

As to `NC/C(=C\F)Cn1ncn(Cc2ccc(C#Cc3cnc4c(c3)NC(=O)CO4)s2)c1=O` [Example 138, 7-[2-[5-[[1-[(E)-2-(aminomethyl)-3-fluoro-allyl]-5-oxo-1,2,4-triazol-4-yl]methyl]-2-thienyl]ethynyl]-1H-pyrido[2,3-b][1,4]oxazin-2-one hydrochloride], the IC50 at recombinant human VAP-1 was 0.2 nM; in experiment [1] it was 2300 nM; in experiment [2], more than 100000 nM; in experiment [3], 470 nM.

On to `CN(C)c1ccc(-c2ccc(CCn3cnn(C/C(=C/F)CN)c3=O)s2)cn1` [Example 220, 2-[(2E)-2-(aminomethyl)-3-fluoroprop-2-en-1-yl]-4-(2-{5-[6-(dimethylamino)pyridin-3-yl]thiophen-2-yl}ethyl)-2,4-dihydro-3H-1,2,4-triazol-3-one], for which the IC50 is 0.7 nM on recombinant human VAP-1, 25000 nM in experiment [1], more than 100000 nM in experiment [2] and 520 nM in experiment [3].

In the case of `CS(=O)(=O)c1ccc(-c2ccc(CCn3cnn(C/C(=C/F)CN)c3=O)s2)cc1` [Example 216, 2-[(2E)-2-(aminomethyl)-3-fluoroprop-2-en-1-yl]-4-(2-{5-[4-(methylsulfonyl)phenyl]thiophen-2-yl}ethyl)-2,4-dihydro-3H-1,2,4-triazol-3-one], the IC50 on recombinant human VAP-1 was 0.5 nM; in experiment [1], 37000 nM; in experiment [2] it was more than 100000 nM; in experiment [3], 68 nM.

Consider `CN1C(=O)CCc2cc(-c3ccc4sc(Cn5cnn(C/C(=C/F)CN)c5=O)cc4c3)ccc21` [Example 211, 6-[2-({1-[(2E)-2-(aminomethyl)-3-fluoroprop-2-en-1-yl]-5-oxo-1,5-dihydro-4H-1,2,4-triazol-4-yl}methyl)-1-benzothiophen-5-yl]-1-methyl-3,4-dihydroquinolin-2(1H)-one], for which the IC50 on recombinant human VAP-1 amounted to 1.9 nM; in experiment [1], 7900 nM; in experiment [2], 49000 nM; in experiment [3], 1000 nM.

`NC/C(=C\F)Cn1ncn(Cc2ccc(C#Cc3cnc4c(c3)OCC(=O)N4)s2)c1=O` [Example 139, 7-[2-[5-[[1-[(E)-2-(aminomethyl)-3-fluoro-allyl]-5-oxo-1,2,4-triazol-4-yl]methyl]-2-thienyl]ethynyl]-4H-pyrido[3,2-b][1,4]oxazin-3-one hydrochloride]: the concentration for half-maximal inhibition (IC50) at recombinant human VAP-1 was 0.5 nM; in experiment [1] it was 73 nM; in experiment [2], more than 100000 nM; in experiment [3], 290 nM.

Take `NC/C(=C\F)Cn1ncn(Cc2ccc(-c3ccn4ncnc4c3)s2)c1=O` [Example 66, 2-[(2E)-2-(aminomethyl)-3-fluoroprop-2-en-1-yl]-4-[5-([1,2,4]triazolo[1,5-a]pyridin-7-yl)thiophen-2-yl]methyl-2,4-dihydro-3H-1,2,4-triazol-3-one hydrochloride]: the IC50 at recombinant human VAP-1 was 0.5 nM; in experiment [1], 1200 nM; in experiment [2] it was more than 10000 nM; in experiment [3] it was 340 nM.

With `NC/C(=C\F)Cn1ncn(Cc2ccc(-c3cc(F)c4c(c3)CNC4=O)s2)c1=O` [Example 70, hydrochloride], the IC50 is 0.1 nM on recombinant human VAP-1, 2800 nM in experiment [1], more than 100000 nM in experiment [2] and 289 nM in experiment [3].

Consider `NC/C(=C\F)Cn1ncn(Cc2ccc(-c3cnc(N4CCOCC4)nc3)s2)c1=O` [Example 57, 2-[(2E)-2-(aminomethyl)-3-fluoroprop-2-en-1-yl]-4-(5-[2-(morpholin-4-yl)pyrimidin-5-yl]thiophen-2-ylmethyl)-2,4-dihydro-3H-1,2,4-triazol-3-one hydrochloride], for which the IC50 on recombinant human VAP-1 was 2.2 nM; in experiment [1], 1600 nM; in experiment [2] it was 6600 nM; in experiment [3] it was 83 nM.

`NC/C(=C\F)Cn1ncn(Cc2ccc(-c3ccc(N4CCNCC4)nc3)s2)c1=O` [Example 199, 2-[(2E)-2-(aminomethyl)-3-fluoroprop-2-en-1-yl]-4-({5-[6-(piperazin-1-yl)pyridin-3-yl]thiophen-2-yl}methyl)-2,4-dihydro-3H-1,2,4-triazol-3-one]: the IC50 on recombinant human VAP-1 is 8.8 nM; in experiment [1] it was more than 100000 nM; in experiment [2], more than 100000 nM; in experiment [3], 1100 nM.

For `CCn1cc(-c2ccc(CCn3cnn(C/C(=C/F)CN)c3=O)s2)cn1` [Example 222, 2-[(2E)-2-(aminomethyl)-3-fluoroprop-2-en-1-yl]-4-{2-[5-(1-ethyl-1H-pyrazol-4-yl)thiophen-2-yl]ethyl}-2,4-dihydro-3H-1,2,4-triazol-3-one], the IC50 at recombinant human VAP-1 was 0.7 nM; in experiment [1], 38000 nM; in experiment [2], more than 100000 nM; in experiment [3] it was 890 nM.
